Key:
Format in all cases: cell-based
Proteus vulgaris = assay: MIC against Gram-negative bacteria: Proteus vulgaris
Method in brief: (§1)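 MIC = lowest concentration of recombinant protein showing no growth. Test proteins: purified human-derived EGF domain proteins, two-fold dilution series, three wells per concentration; inoculum 5×10^5 CFU/mL in LB; incubation 37° C with shaking at 175 rpm.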

Moraxella catarrhalis = assay: MIC against Gram-negative bacteria: Moraxella catarrhalis
Method in brief: as §1

Enterobacter cloacae = assay: MIC against Gram-negative bacteria: Enterobacter cloacae
Method in brief: as §1

E. coli BL21 = assay: MIC against Gram-negative bacteria: E. coli BL21
Method in brief: as §1

Citrobacter diversus = assay: MIC against Gram-negative bacteria: Citrobacter diversus
Method in brief: as §1

Proteus mirabilis = assay: MIC against Gram-negative bacteria: Proteus mirabilis
Method in brief: as §1

Pseudomonas aeruginosa = assay: MIC against Gram-negative bacteria: Pseudomonas aeruginosa
Method in brief: as §1

Aeromonas hydrophila = assay: MIC against Gram-negative bacteria: Aeromonas hydrophila
Method in brief: as §1

Klebsiella pneumonia = assay: MIC against Gram-negative bacteria: Klebsiella pneumonia
Method in brief: as §1

Serratia marcescens = assay: MIC against Gram-negative bacteria: Serratia marcescens
Method in brief: as §1

E. coli DH5α = assay: Antibacterial activity: MIC and growth curve against E. coli DH5α in 96-well plate; conditions: minimal inhibitory concentration against E. coli DH5α; 96-well plate, 5×10^5 CFU/mL, 37° C., judged after 8 h
Method in brief: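 MIC taken as lowest protein level with no bacterial growth, tracked by A600 every 30 min during 37 °C, 175 rpm culture. Two-fold protein series 50-12.5 μg/mL final, triplicate wells, against 5×10^5 CFU/mL of LB-washed mid-log cells.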

[1] = Proteus vulgaris, 96-well plate, 5×10^5 CFU/mL, 37° C., 10 h
[2] = Moraxella catarrhalis, 96-well plate, 5×10^5 CFU/mL, 37° C., 10 h
[3] = Enterobacter cloacae, 96-well plate, 5×10^5 CFU/mL, 37° C., 10 h
[4] = E. coli BL21, 96-well plate, 5×10^5 CFU/mL, 37° C., 10 h
[5] = Citrobacter diversus, 96-well plate, 5×10^5 CFU/mL, 37° C., 10 h
[6] = Proteus mirabilis, 96-well plate, 5×10^5 CFU/mL, 37° C., 10 h
[7] = Pseudomonas aeruginosa, 96-well plate, 5×10^5 CFU/mL, 37° C., 10 h
[8] = Aeromonas hydrophila, 96-well plate, 5×10^5 CFU/mL, 37° C., 10 h
[9] = Klebsiella pneumonia, 96-well plate, 5×10^5 CFU/mL, 37° C., 10 h
[10] = Serratia marcescens, 96-well plate, 5×10^5 CFU/mL, 37° C., 10 h
[11] = 96-well plate, 5×10^5 CFU/mL, 37° C., 10 h
[12] = 10 h cultivation at 37° C., 5×10^5 CFU/mL, two-fold serial dilution

PRT47 (CTCSGHANICHLHTGKCFCTTKGIKGDQCQLCDSENRYVGNPLRGTCYY; listed as Homo sapiens)
MIC (μg/mL) P. vulgaris (Proteus vulgaris; [1]): 50 µg/mL | MIC (μg/mL) M. catarrhalis (Moraxella catarrhalis; [2]): 12.5 µg/mL | MIC (μg/mL) E. cloacae (Enterobacter cloacae; [3]): 25 µg/mL | MIC (μg/mL) E. coli BL21 (E. coli BL21; [4]): 25 µg/mL | MIC (μg/mL) C. diversus (Citrobacter diversus; [5]): 50 µg/mL | MIC (μg/mL) P. mirabilis (Proteus mirabilis; [6]): 25 µg/mL | MIC (μg/mL) P. aeruginosa (Pseudomonas aeruginosa; [7]): 12.5 µg/mL | MIC (μg/mL) A. hydrophila (Aeromonas hydrophila; [8]): 12.5 µg/mL | MIC (μg/mL) K. pneumonia (Klebsiella pneumonia; [9]): 12.5 µg/mL | MIC (μg/mL) S. marcescens (Serratia marcescens; [10]): 12.5 µg/mL | MIC (E. coli DH5α): 12.5 µg/mL

PRT647 (DVDECLRPDVCGEGHCVNTVGAFRCEYCDSGYRMTQRGRCE; listed as Homo sapiens)
MIC P. vulgaris (Proteus vulgaris; [11]): 50 µg/mL | MIC M. catarrhalis (Moraxella catarrhalis; [11]): 50 µg/mL | MIC E. cloacae (Enterobacter cloacae; [11]): 12.5 µg/mL | MIC E. coli BL21 (E. coli BL21; [11]): 12.5 µg/mL | MIC C. diversus (Citrobacter diversus; [11]): 12.5 µg/mL | MIC P. mirabilis (Proteus mirabilis; [11]): 12.5 µg/mL | MIC P. aeruginosa (Pseudomonas aeruginosa; [11]): 25 µg/mL | MIC A. hydrophila (Aeromonas hydrophila; [11]): 50 µg/mL | MIC K. pneumonia (Klebsiella pneumonia; [11]): 50 µg/mL | MIC S. marcescens (Serratia marcescens; [11]): 25 µg/mL | MIC (E. coli DH5α): 25 µg/mL

PRT919 (NIDDCPGNNCKNGGACVDGVNTYNCRCPPEWTGQYCT; listed as Homo sapiens)
MIC (Proteus vulgaris; P. vulgaris, 10 h cultivation at 37° C.): 25 µg/mL | MIC (Moraxella catarrhalis; M. catarrhalis, 10 h cultivation at 37° C.): 12.5 µg/mL | MIC (Enterobacter cloacae; E. cloacae, 10 h cultivation at 37° C.): 25 µg/mL | MIC (E. coli BL21; E. coli BL21, 10 h cultivation at 37° C.): 12.5 µg/mL | MIC (Citrobacter diversus; C. diversus, 10 h cultivation at 37° C.): 25 µg/mL | MIC (Proteus mirabilis; P. mirabilis, 10 h cultivation at 37° C.): 25 µg/mL | MIC (Pseudomonas aeruginosa; P. aeruginosa, 10 h cultivation at 37° C.): 50 µg/mL | MIC (Aeromonas hydrophila; A. hydrophila, 10 h cultivation at 37° C.): 50 µg/mL | MIC (Klebsiella pneumonia; K. pneumonia, 10 h cultivation at 37° C.): 12.5 µg/mL | MIC (Serratia marcescens; S. marcescens, 10 h cultivation at 37° C.): 50 µg/mL | MIC (E. coli DH5α): 50 µg/mL

PRT183 (ECIPHNGCRHGTCSTPWQCTCDEGWGGLFCD; listed as Homo sapiens)
MIC (μg/mL) P. vulgaris (Proteus vulgaris; P. vulgaris, 10 h cultivation at 37° C., 5×10^5 CFU/mL): 25 µg/mL | MIC (μg/mL) M. catarrhalis (Moraxella catarrhalis; M. catarrhalis, 10 h cultivation at 37° C., 5×10^5 CFU/mL): 25 µg/mL | MIC (μg/mL) E. cloacae (Enterobacter cloacae; E. cloacae, 10 h cultivation at 37° C., 5×10^5 CFU/mL): 12.5 µg/mL | MIC (μg/mL) E. coli BL21 (E. coli BL21; E. coli BL21, 10 h cultivation at 37° C., 5×10^5 CFU/mL): 12.5 µg/mL | MIC (μg/mL) C. diversus (Citrobacter diversus; C. diversus, 10 h cultivation at 37° C., 5×10^5 CFU/mL): 12.5 µg/mL | MIC (μg/mL) P. mirabilis (Proteus mirabilis; P. mirabilis, 10 h cultivation at 37° C., 5×10^5 CFU/mL): 12.5 µg/mL | MIC (μg/mL) P. aeruginosa (Pseudomonas aeruginosa; P. aeruginosa, 10 h cultivation at 37° C., 5×10^5 CFU/mL): 12.5 µg/mL | MIC (μg/mL) A. hydrophila (Aeromonas hydrophila; A. hydrophila, 10 h cultivation at 37° C., 5×10^5 CFU/mL): 25 µg/mL | MIC (μg/mL) K. pneumonia (Klebsiella pneumonia; K. pneumonia, 10 h cultivation at 37° C., 5×10^5 CFU/mL): 25 µg/mL | MIC (μg/mL) S. marcescens (Serratia marcescens; S. marcescens, 10 h cultivation at 37° C., 5×10^5 CFU/mL): 12.5 µg/mL | MIC (E. coli DH5α): 12.5 µg/mL

PRT1141 (EINECSSEPCKNNGTCVDLTNRFFCNCEPEYHGPFCE; listed as Homo sapiens)
MIC P. vulgaris (Proteus vulgaris; [12]): 12.5 µg/mL | MIC M. catarrhalis (Moraxella catarrhalis; [12]): 50 µg/mL | MIC E. cloacae (Enterobacter cloacae; [12]): 50 µg/mL | MIC E. coli BL21 (E. coli BL21; [12]): 12.5 µg/mL | MIC C. diversus (Citrobacter diversus; [12]): 25 µg/mL | MIC P. mirabilis (Proteus mirabilis; [12]): 25 µg/mL | MIC P. aeruginosa (Pseudomonas aeruginosa; [12]): 50 µg/mL | MIC A. hydrophila (Aeromonas hydrophila; [12]): 12.5 µg/mL | MIC K. pneumonia (Klebsiella pneumonia; [12]): 12.5 µg/mL | MIC S. marcescens (Serratia marcescens; [12]): 25 µg/mL | MIC (E. coli DH5α): 50 µg/mL

PRT101 (DVDECSSGQHQCDSSTVCFNTVGSYSCRCRPGWKPRHGIPNNQKDTVCE; listed as Homo sapiens)
MIC (μg/mL) P. vulgaris (Proteus vulgaris; [1]): 12.5 µg/mL | MIC (μg/mL) M. catarrhalis (Moraxella catarrhalis; [2]): 50 µg/mL | MIC (μg/mL) E. cloacae (Enterobacter cloacae; [3]): 25 µg/mL | MIC (μg/mL) E. coli BL21 (E. coli BL21; [4]): 50 µg/mL | MIC (μg/mL) C. diversus (Citrobacter diversus; [5]): 50 µg/mL | MIC (μg/mL) P. mirabilis (Proteus mirabilis; [6]): 12.5 µg/mL | MIC (μg/mL) P. aeruginosa (Pseudomonas aeruginosa; [7]): 25 µg/mL | MIC (μg/mL) A. hydrophila (Aeromonas hydrophila; [8]): 50 µg/mL | MIC (μg/mL) K. pneumonia (Klebsiella pneumonia; [9]): 50 µg/mL | MIC (μg/mL) S. marcescens (Serratia marcescens; [10]): 12.5 µg/mL | MIC (E. coli DH5α): 25 µg/mL

PRT461 (DVDECAWDAHLCREGQRCVNLLGSYRCLPDCGPGFRVADGAGCE; listed as Homo sapiens)
MIC against P. vulgaris (Proteus vulgaris; [11]): 25 µg/mL | MIC against M. catarrhalis (Moraxella catarrhalis; [11]): 25 µg/mL | MIC against E. cloacae (Enterobacter cloacae; [11]): 50 µg/mL | MIC against E. coli BL21 (E. coli BL21; [11]): 12.5 µg/mL | MIC against C. diversus (Citrobacter diversus; [11]): 50 µg/mL | MIC against P. mirabilis (Proteus mirabilis; [11]): 12.5 µg/mL | MIC against P. aeruginosa (Pseudomonas aeruginosa; [11]): 50 µg/mL | MIC against A. hydrophila (Aeromonas hydrophila; [11]): 12.5 µg/mL | MIC against K. pneumonia (Klebsiella pneumonia; [11]): 12.5 µg/mL | MIC against S. marcescens (Serratia marcescens; [11]): 12.5 µg/mL | MIC (E. coli DH5α): 50 µg/mL
